ChEMBL document CHEMBL5325415, “Falcipains: Biochemistry, target validation and structure-activity relationship studies of inhibitors as antimalarials” (Eur J Med Chem, 2023)
Converted amounts (≈) assume the structure as drawn. Values belong to the compound of their own block, whether it stands above or below them.

Key:
[1] = tested on: Plasmodium falciparum; experiment: Antimalarial activity against Chloroquine-sensitive Plasmodium falciparum 3D7 infected in human erythrocytes assessed as inhibition of parasite growth incubated for 72 hrs by Giemsa staining based analysis; format: functional, organism-based; details: 3D7, Erythrocyte
[2] = target: T1, Falcipain 2 (Plasmodium falciparum, UniProt Q9N6S8); experiment: Inhibition of Plasmodium falciparum FP2 using ZFR-AMC as substrate preincubated with enzyme for 10 mins followed by substrate addition and measured for 30 mins by fluorimetric analysis
T1 sequence (Q9N6S8 whole entry): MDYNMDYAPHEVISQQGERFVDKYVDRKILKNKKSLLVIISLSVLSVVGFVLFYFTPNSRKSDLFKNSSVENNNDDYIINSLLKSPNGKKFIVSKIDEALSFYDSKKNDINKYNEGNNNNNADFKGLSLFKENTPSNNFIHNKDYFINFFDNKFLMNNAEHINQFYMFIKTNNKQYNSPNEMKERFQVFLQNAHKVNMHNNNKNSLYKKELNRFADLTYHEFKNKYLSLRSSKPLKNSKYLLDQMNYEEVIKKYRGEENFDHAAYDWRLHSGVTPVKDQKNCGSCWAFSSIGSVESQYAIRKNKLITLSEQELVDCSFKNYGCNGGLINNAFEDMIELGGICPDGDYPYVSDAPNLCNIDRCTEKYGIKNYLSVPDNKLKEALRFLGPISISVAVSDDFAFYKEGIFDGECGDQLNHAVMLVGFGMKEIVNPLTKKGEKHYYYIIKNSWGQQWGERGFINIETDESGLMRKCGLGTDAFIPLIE

[3] = tested on: Plasmodium falciparum; experiment: Antiplasmodial activity against Plasmodium falciparum 3D7 infected in human erythrocytes assessed as growth inhibition measured after 52 hrs by SYBR green dye based assay; format: functional, organism-based; details: 3D7, Erythrocyte
[4] = target: T2, Falcipain 2 (Plasmodium falciparum) (UniProt Q9N6S8); experiment: Inhibition of Plasmodium falciparum FP-2 using Z-Leu-Arg-AMC as substrate at 10 uM pretreated with enzyme for 30 mins followed by substrate addition and measured for 30 mins by spectrofluorometry; details: time 60.0 min
T2 sequence (whole entry): T1 sequence (Q9N6S8 whole entry)

[5] = target: T1, Falcipain 2; experiment: Inhibition of Plasmodium falciparum FP-2 using Z-Leu-Arg-AMC as substrate pretreated with enzyme for 30 mins followed by substrate addition and measured for 30 mins by spectrofluorometry
[6] = tested on: Plasmodium falciparum; experiment: Antimalarial activity against Chloroquine-resistant Plasmodium falciparum RKL9 infected in human erythrocytes assessed as inhibition of parasite growth incubated for 72 hrs by Giemsa staining based analysis; format: functional, organism-based; details: RKL9, Erythrocyte
[7] = tested on: Plasmodium falciparum; experiment: Antimalarial activity against chloroquine-resistant Plasmodium falciparum RKL9 infected in RBC measured after 24 to 30 hrs by microscopic analysis; format: functional, organism-based; details: RKL9, Erythrocyte
[8] = Inhibition of Plasmodium vinckei extracts VP-2 using Z-phe-Arg-AMC as substrate pretreated with enzyme for 30 mins followed by substrate addition and measured for 30 mins by spectrofluorometry
[9] = target: T1, Falcipain 2; experiment: Inhibition of Plasmodium falciparum Itg2 trophozite extracts FP-2 using Z-phe-Arg-AMC as substrate pretreated with enzyme for 30 mins followed by substrate addition and measured for 30 mins by spectrofluorometry
[10] = tested on: Plasmodium falciparum; experiment: Antimalarial activity against chloroquine-sensitive Plasmodium falciparum 3D7 infected in RBC measured after 24 to 30 hrs by microscopic analysis; format: functional, organism-based; details: 3D7, Erythrocyte
[11] = target: T1, Falcipain 2; experiment: Inhibition of Plasmodium falciparum FP-2 using Cbz-Phe-Arg-AMC as substrate pretreated with enzyme for 10 mins followed by substrate addition and measured after 10 mins by fluorescence based analysis

Structure (SMILES): N#C/C(=C\c1ccc([N+](=O)[O-])cc1)c1nc2ccccc2[nH]1
IC50 [1]: 68.9 µM

Structure (SMILES): Fc1ccc(-n2cc(COc3ccnc4cc(Cl)ccc34)nn2)cc1Cl
IC50 [2]: 45.1 µM
EC50 [3]: 406 µM

Structure (SMILES): N#C/C(=C\c1cccc(Cl)c1)c1nc2ccccc2[nH]1
IC50 [1]: 24.8 µM

inhibition [4]: 85.7%
IC50 [5]: 2.95 µM
Structure (SMILES): C=CCn1c(SCC(=O)Nc2sc3c(c2C(N)=O)CCC3)nc2scc(-c3ccc(Cl)cc3)c2c1=O

Structure (SMILES): N#C/C(=C\c1cccc(Br)c1)c1nc2ccccc2[nH]1
IC50 [1]: 14.4 µM
IC50 [6]: 43.4 µM

IC50 [2]: 4.78 µM
Structure (SMILES): O=C(c1cc(Cl)nc2ccccc12)N1CCN(c2ccnc3cc(Cl)ccc23)CC1
EC50 [3]: 1.05 µM

IC50 [2]: 13 µM
Structure (SMILES): O=C(c1cc(-c2ccccc2)nc2ccccc12)N1CCN(c2cc(=O)[nH]c3ccccc23)CC1
EC50 [3]: 20.2 µM

Structure (SMILES): Fc1ccc(-c2nn(-c3ccccc3)cc2/C=C/c2nnc(-c3c[nH]c4ccccc34)o2)cc1
IC50 [7]: 1.37 µg/mL (≈ 3.07 µM)

Structure (SMILES): N#C/C(=C\c1cccc([N+](=O)[O-])c1)c1nc2ccccc2[nH]1
IC50 [1]: 64.8 µM

Structure (SMILES): COC(=O)c1ccc(CNC(=O)[C@@H](Cc2c[nH]c3ccccc23)NC(=O)Oc2ccccc2)cc1
inhibition [4]: 32.9%
IC50 [5]: 13.3 µM

Structure (SMILES): C[C@H]1[C@H](OC(=O)c2ccc(/C=N/NC(=O)Nc3ccc(F)cc3)cc2)O[C@@H]2O[C@@]3(C)CC[C@H]4[C@H](C)CC[C@@H]1[C@@]24OO3
IC50 [5]: 0.65 µM

inhibition [4]: 25.7%
IC50 [5]: 39.4 µM
Structure (SMILES): O=C(Cc1ccccc1)N[C@H](Cc1c[nH]c2ccccc12)C(=O)NCc1ccccc1

Structure (SMILES): N#C/C(=C\c1cccc(F)c1)c1nc2ccccc2[nH]1
IC50 [1]: 22.2 µM
IC50 [6]: 53.3 µM

Structure (SMILES): Fc1ccc(-n2cc(COc3ccnc4cc(Cl)ccc34)nn2)c(F)c1
IC50 [2]: 25.4 µM
EC50 [3]: 159 µM

Structure (SMILES): Fc1ccccc1-n1cc(COc2ccnc3cc(Cl)ccc23)nn1
IC50 [2]: 107 µM
EC50 [3]: 66.6 µM

inhibition [4]: 88.7%
IC50 [5]: 2.81 µM
Structure (SMILES): C=CCn1c(SCC(=O)Nc2sc3c(c2C(N)=O)CCC3)nc2scc(-c3ccccc3)c2c1=O

Structure (SMILES): COc1ccc(/C=C(\C#N)c2nc3ccccc3[nH]2)cc1O
IC50 [1]: 1.61 µM
IC50 [6]: 5.46 µM

Structure (SMILES): O=[N+]([O-])c1ccc(-n2cc(COc3ccnc4cc(Cl)ccc34)nn2)cc1
IC50 [2]: 16.2 µM
EC50 [3]: 49.9 µM

IC50 [8]: 0.1 µM
IC50 [9]: 0.08 µM
Structure (SMILES): O=C(N[C@H](/C=C/S(=O)(=O)c1ccccc1)CCc1ccccc1)[C@H](Cc1ccccc1)NC(=O)N1CCOCC1

Structure (SMILES): CCOc1ccc(NC(=O)N/N=C/c2ccc(C(=O)O[C@@H]3O[C@@H]4O[C@@]5(C)CC[C@H]6[C@H](C)CC[C@@H]([C@H]3C)[C@@]46OO5)cc2)cc1
IC50 [5]: 0.29 µM

IC50 [9]: 10 µM
Structure (SMILES): COc1ccc(-c2nccc3ccc(Cc4ccccc4)cc23)cc1

IC50 [2]: 4.2 µM
Structure (SMILES): O=C(c1cc(-c2ccccc2)nc2ccccc12)N1CCN(S(=O)(=O)c2ccc(Cl)cc2Cl)CC1
EC50 [3]: 20 µM

Structure (SMILES): Cc1ccc(-c2nn(-c3ccccc3)cc2/C=C/c2nnc(-c3ccc([N+](=O)[O-])cc3)o2)cc1
IC50 [7]: 1.57 µg/mL (≈ 3.5 µM)
IC50 [10]: 0.486 µg/mL (≈ 1.08 µM)
IC50 [11]: 16 µM

Structure (SMILES): O=C(N[C@H](Cc1c[nH]c2ccccc12)C(=O)NCc1ccc([N+](=O)[O-])cc1)Oc1ccccc1
inhibition [4]: 49.5%
IC50 [5]: 10 µM

inhibition [4]: 82.2%
IC50 [5]: 5.77 µM
Structure (SMILES): C=CCn1c(SCC(=O)Nc2sc3c(c2C(N)=O)CCC3)nc2sc3c(c2c1=O)CCCC3

Structure (SMILES): C[C@H]1[C@@H](Oc2ccc(/C=N/NC(=S)Nc3ccccc3F)cc2)O[C@@H]2O[C@@]3(C)CC[C@H]4[C@H](C)CC[C@@H]1[C@@]24OO3
IC50 [5]: 2.51 µM
